In US9351485B2, “Use of sophorolipids and derivatives thereof in combination with pesticides as adjuvant/additive for plant protection and the industrial non-crop field” (EVONIK DEGUSSA GMBH, priority 2009, dated 2016):

Tested on: mildew fungus Blumeria graminis f. sp. hordei (race A6)
Experiment: Protective fungicide glasshouse trial on barley (mildew)
Type: in vivo
Conditions: Table 6; Sulfur 250 g/ha, no adjuvant; 10 days after application
Text: The plants (barley) were cultivated under glass in exactly the same way as in the curative trial. For the protective trials, however, the plants were sprayed at about three weeks old with spray solutions containing the active fungicidal ingredient sulfur (Microthiol WG 80% sulfur from Stähler), either alone or in combination with adjuvants/additives. Furthermore, in order to test for synergy, the adjuvant was applied in the spray solution alone, in other words without sulfur. The sulfur dose was 1000 ppm/l, while the adjuvants were used in different doses (for doses see results tables). The amount of spray solution was 250 l/ha, and so the adjuvant concentration in the spray solution was not more than 0.1%; the sulfur dose was 250 g/ha. […]
The activity of the adjuvant alone, of the pesticide alone (i.e., of the fungicides or herbicides), and of the pesticide/adjuvant combination was calculated, in a manner known to the skilled person, in comparison to an untreated control sample, which was nevertheless inoculated with the mildew fungus, and expressed in % control of the disease.

S1SSSSSSS1 [Sulfur, sulfur]
Efficacy (%): 46%
